The values below come from publication PMC11984388, “A brain-accessible peptide modulates stroke inflammatory response and neurotoxicity by targeting BDNF-receptor TrkB-T1 specific interactome” (Theranostics, 2025).

Assay [1] can be described thus: Infarct volume after photothrombotic permanent ischemia. Type of assay: in vivo, mice. Particulars: 24 h; for Decrease of infarct volume: versus TMyc, 3 nmol/g i.v. 1 h after damage. The protocol: Permanent focal ischemia was induced in cerebral cortex of adult male and female mice by microvascular photothrombosis as described with modifications. Brain injury involves vascular endothelium damage and platelet activation, followed by microvascular thrombotic occlusion of a particular region selected for illumination using a stereotaxic frame. Coordinates were +0.2 AP, +2 ML relative to Bregma and damaged area corresponded to primary motor and somatosensory cortex. For neuroprotection, a single dose (3 nmol/g) of peptides TMyc or TT1Ct (see below) was administered 1 h after damage initiation. Further details of the procedures, including measurement of infarct volume and evaluation of motor coordination and balance, are detailed as Supplementary material.
Antibodies, chemica ls and recombinant proteins, cell-penetrating peptides , prime rs , commercial as says , experimental models, recombinant DNAs and software ar e des cribe d in the Table S1, included as Supplementary material.
Animal procedures were performed follow ing Europea n Union Directive 2010/63/ EU and were approved by the CS I C and Comunidad de Ma drid (Ref PROEX 276.6/20) ethics committees.
Hous ing facilities were approved by Comunidad de Ma drid (#ES 280790000188) and conform to official regulations. Animals had sta ndard health and immune sta tus and were looked af ter by profes sional caretake rs daily. Ma l e and female mice were kept in groups of up to five in sta ndard IVC cage s while 1–2 pregnant rats occupied sta ndard cage s, always containing bedding and nes ting materials. Animals were under controlled lighting conditions (12 h light cycles ), relative humidity and temperature. Irradiated food and water were provided ad libitum.
We trie d to minimiz e animal suffering and reduce the number of sa cri f i ced animals .
Mi c e model of isc he mia by microv ascular photothr ombosis to study in vivo excitotoxicity This model of permanent focal isc hemia mimics embolic or thrombotic occlus ion of sm a ll ar ter ie s, which is freque ntly found in human stroke, and caus es a focal brain damage with histological and MR I corre lations to human patterns. The procedure was as previously des cribe d with some modific ations . Ma l e and female Ba lb/c OlaHsd mice (23–31 g; 10–16 weeks of age; Envigo Rms , Spain S.L.) were allowed to acc limatize to our facilities for at least 1 week af ter delivery, before isc hemic induction. They were kept with the sa m e cage mates, and daily examined to chec k their health sta tus . Mi c e were anes thetized with isoflurane (5% for induction, 2% for maintenance in oxygen; Abbot Labora tories , Ma drid, Spain) and then placed in a ste reotaxic frame (Naris hige Group, Tokyo, Ja pan). Body temperature was maintained at 36–37°C using a se l f-regulating heating blanket (Cibertec, Ma drid, Spain). A midline sc al p incision was made, the skull was expos ed, and both Bregma and Lambda points were identifie d.
A cold- light (Sc hott KL 2500 LCD; Schott Glas s, Ma inz, Germany) with a fibre optic bundle of 1.5 mm in diameter was centred using a micromanipula tor on the right side , at 0.2 mm anterior and 2.0 mm lateral (+0.2 AP, +2 ML ) relative to Bregma. […] Five minutes later, the brain was illumina ted (600 lms, 3,000 K) through the intact […]
skull for 10 min. Br ain injury encompas se s damage to vas cular endothelium, platelet activation, and subs equent microvascula r thrombotic occlus ion of the irradiate d region. The ar eas underneath this ste reotaxic position that result irradiate d ar e the prima ry motor cortex and the prima ry soma tos ens ory cortex (hindlimb and forelimb). Once completed surgery, the incision was sutured, and mice were allowed to recover. […]

The nature of assay [2]: Immunoglobulin infiltration in ischemic brain. Type of assay: in vivo. Particulars: male mice, 24 h after insult; versus control peptide (Fig S7). The protocol:
The brains of animals injected one hour af ter the initiation of the photothrombotic damage with vehicle (saline), TMyc or TT1Ct (3 nmol/g) were process ed and cryoprote cted as before indicated. The duration of damage before sa cri f i ce was 5 h (male and female) or 24 h (male).
Coronal froze n se ctions were incubated with blocking solution as des cribe d in flota tion for 1 h at room temperature and then overnight with prima ry antibodies diluted in 4% goat se rum and 0.3% Triton X-100 in PBS at 4°C. After was hing, slides were incubated 1 h with Alexa Fluor 546- conjugated goat anti-rabbit or AlexaFluor 647- conjugated goat anti-mouse se condary antibodies to visua liz e the prima ry antibodies and DAPI (5 μg/ml). Only for Iba1 sta ining, blocking solution was 2.5% BS A, 5% goat se rum, 0.5% Triton X-100 in PBS, and se ctions were incubated with prima ry antibody 24 h at RT follow ed by was hing and Alexa Fluor 546-conjugated goat anti-rabbit and DAPI incubation for 1 h. Sections were then was hed in PBS, mounted on slides , dried for 15 min at 37 °C on a hot plate, or air dried overnight and then cover slipped with DPX or Prolong Diamond. Ce ll Obs erve d images were obtained with Zeiss microscope Observe r.Z1 using a 10x Plan-Apochromatic objective. […]

Turning to Ac-YGRKKRRQRRRPPFVLFHKIPLDG-NH2 [TT1Ct], the “Decrease of infarct volume” value in assay [1] (female mice) was determined as 42%; in assay [1] (male mice), 45%. In addition, in assay [1] (male + female mice, 3 nmol/g i.v. 1 h after damage induction, TTC, relative to hemisphere volume, mean ± SEM, n = 19, n = 20), the “Infarct volume (%)” value came out at 10 ± 1%. Moreover, the Immunoglobulin infiltration result in assay [2] was “reduced immunoglobulin infiltration”.
